Data as given in ChEMBL document CHEMBL1133959, “Syntheses and preliminary pharmacological evaluation of the two epimers of the 5-F2t-isoprostane” (2001).
The source made the active and inactive calls. No cut-off for these calls is given here.

What was measured:
Type in all cases: functional
Rattus norvegicus [1] = organism: Rattus norvegicus; assay: Effect of compound on rat thoracic aorta constriction in rat at 10e-5 M concentration; No effect
Rattus norvegicus [2] = organism: Rattus norvegicus; assay: Compound was tested for maximal contraction of rat thoracic aorta
Rattus norvegicus [3] = organism: Rattus norvegicus; assay: Effect of compound on rat thoracic aorta constriction in rat

SMILES | pD2 (Rattus norvegicus [1]) | Emax (Rattus norvegicus [2]) | pD2 (Rattus norvegicus [3])
CCCCC/C=C\C[C@@H]1[C@H](/C=C/[C@H](O)CCCC(=O)OC)[C@@H](O)C[C@H]1O | inactive |  | 
CCCCC/C=C\C[C@@H]1[C@H](/C=C/[C@@H](O)CCCC(=O)OC)[C@@H](O)C[C@H]1O | inactive |  | 
CCCCC[C@H](O)/C=C/[C@H]1C2CC(CO2)[C@@H]1C/C=C\CCCC(=O)O (some centres undefined) |  | 189% | 7.8
